PMC6010013, “Synthesis, physiochemical property and antimicrobial activity of novel quaternary ammonium salts” (Journal of Enzyme Inhibition and Medicinal Chemistry, 2017)

Experiments:
Cytotoxicity, MTT assay = format: cell-based, human; details: human, MTT, 24 h
Method: These six series of antimicrobial compounds may be applied to daily or clinical disinfectants for unbroken skin and trauma, or agricultural fungicides alternatively. Thus, their cytotoxicity for skin or body tissues are crucial. In this study, the cytotoxicity of target compounds was evaluated for human immortalised epidermal (HaCat) and human normal liver (LO2) cell line using MTT assay. […] The IC50 values of 5a, 6a, 10a, 16a, 16 b were about more than 50 μg/mL for LO2 and HaCat.
Cytotoxicity Testing with MTT Method
Human immortalized epidermal cells (HaCat) line were cultured in Dulbecco’s modified Eagle’s medium containing 10% fetal bovine serum, 1% penicillin, and 1% streptomycin at 37°C in a 5% CO2/95% air incubator MCO-15AC (SANYO). Human normal liver cells (LO2) line were cultured in Roswell Park Memorial Institute medium containing 10% fetal bovine serum, 1% penicillin, and 1% streptomycin at 37°C in a 5% CO2/95% air incubator MCO-15AC (SANYO). HaCat or LO2 cells in 96-well plate were adjusted to 1.0 × 10^5 cells mL-1 and cells were passed and cell supernatant was pour out before plating on glass slide at 37°C, 5% CO2 for 24 h. Cells were pretreated with 100 μL QAS for 24 h and cell supernatant with QAS was pour out and washed with PBS buffer system. Then, the cells were treated with the MTT solution (MTT, 3-(4,5-dimethythiazol-2-yl)-2,5-diphenyl-tetrazolium bromide, 20 μL, 5 mg/mL) for 4 h. The dark blue formazan crystal formed in the intact cells was solubilized with dimethyl sulfoxide, and absorbance at 570 nm was measured with a microplate reader (Multiskan MK3-Thermo Labsystems, USA). The results were expressed as percentage of the control value from the normal cells without treatments of QAS. […]

β-H-tococcus [1] = test: MBC, agar plating of dilutions without growth; format: cell-based; details: 99.9% bactericidal; for MBC: read-out: Minimal bactericidal concentration (MBC)
Source text: (§1) In this paper, antimicrobial activities of 24 QASs were detected by quantitative tests. […] Benzalkonium chloride (BZK) and chlorhexidine acetate (CA) was selected as positive controls. Representative compound POT-C12QAS (2) which synthesised and evaluated in previous work was also taken as a reference compound in MIC, MBC and cytotoxicity tests. […]
(§2) agriculture were used as target pathogens in this study, including three strains of Gram-positive bacteria (S. Aureus, α-H-tococcus, β-H-tococcus), three strains of Gram-negative bacteria (E. coli, P. aeruginosa, Proteus vulgaris) and four strains of fungi (Canidia albicans, Cytospora mandshurica, Physalospora piricola, Aspergillus niger). The antimicrobial tests were assayed, according to standard CLSI methods for antimicrobial dilution susceptibility tests to measure the minimum inhibitory concentration (MIC) and minimum bactericidal concentration (MBC)2.
A broth tube dilution method was followed to determine the MIC values for all the screened compounds against the micro-organisms, and for comparison benzalkonium chloride (BZK) and chlorhexidine acetate (CA) was used as a reference. For sample preparation, each of the test compounds and reference were dissolved in DMSO or sterile water at a concentration of 1600 μg/mL, and further dilutions of the compounds and reference in culture medium MHB (Muller-Hinton Broth) were prepared at the required quantities of 400, 200, 100 etc., down to 0.39 μg/mL. Bacterial strains and fungal strains were maintained on MHA (Muller-Hinton Agar) medium at 37℃ or 28 ℃ for 12 h or 72h, respectively. The microbial inocula were prepared by suspension in 10 mL of culture medium for colonies from culture on MHA. The cell density of each inoculum was adjusted in culture medium of a 0.5 McFarland standard (1-2×10^8 CFU/mL). The final amount applied was 10^5 CFU/mL for bacteria and fungi. The microbial inocula were added to the twofold diluted samples. One growth control tube was prepared […] the addition of the compound and one blank tube was prepared without the addition of the microorganism. MIC values were read after incubation at 37℃ or 28 ℃ for bacterial and fungal strains, respectively. […]
was placed on agar plates in triplicate, and incubated at 37℃ or 28 ℃ for 12 h or 72h. The number of colonies on each plate was read, and the MBC was determined as the lowest concentration that achieved a 99.9% bactericidal in the agar plate.

Canidia albicans = test: MIC, broth tube dilution; format: cell-based; details: 28 ℃; for MIC: 72 h, read-out: Minimal inhibitory concentration (MIC)
Source text: as §1, §2
(§3) A broth tube dilution method was followed to determine the MIC values for all the screened compounds against the micro-organisms, and for comparison benzalkonium chloride (BZK) and chlorhexidine acetate (CA) was used as a reference. For sample preparation, each of the test compounds and reference were dissolved in DMSO or sterile water at a concentration of 1600 μg/mL, and further dilutions of the compounds and reference in culture medium MHB (Muller-Hinton Broth) were prepared at the required quantities of 400, 200, 100 etc., down to 0.39 μg/mL. Bacterial strains and fungal strains were maintained on MHA (Muller-Hinton Agar) medium at 37℃ or 28 ℃ for 12 h or 72h, respectively. The microbial inocula were prepared by suspension in 10 mL of culture medium for colonies from culture on MHA. The cell density of each inoculum was adjusted in culture medium of a 0.5 McFarland standard (1-2×10^8 CFU/mL). The final amount applied was 10^5 CFU/mL for bacteria and fungi. The microbial inocula were added to the twofold diluted samples. One growth control tube was prepared […] the addition of the compound and one blank tube was prepared without the addition of the microorganism. MIC values were read after incubation at 37℃ or 28 ℃ for bacterial and fungal strains, respectively. After 12 h or 72h, the last tube with no growth of micro-organisms was recorded to represent the MIC value expressed in μg/ml. All experiments were carried out three times. […]

Physalospora piricola = test: MIC, broth tube dilution; format: cell-based; details: 28 ℃; for MIC: 72 h, read-out: Minimal inhibitory concentration (MIC)
Source text: as §1, §2, §3

Proteus vulgaris = test: MIC, broth tube dilution; format: cell-based; details: 12 h, 37℃; for MIC: read-out: Minimal inhibitory concentration (MIC)
Source text: as §1, §2, §3

P. aeruginosa = test: MIC, broth tube dilution; format: cell-based; details: 12 h, 37℃; for MIC: Pseudomonas aeruginosa, read-out: Minimal inhibitory concentration (MIC)
Source text: as §1, §2, §3

Cytospora mandshurica = test: MIC, broth tube dilution; format: cell-based; details: 28 ℃; for MIC: Cytospora, 72 h, read-out: Minimal inhibitory concentration (MIC)
Source text: as §1, §2, §3

β-H-tococcus [2] = test: MIC, broth tube dilution; format: cell-based; details: 12 h, 37℃; for MIC: read-out: Minimal inhibitory concentration (MIC)
Source text: as §1, §2, §3

α-H-tococcus = test: MIC, broth tube dilution; format: cell-based; details: 12 h, 37℃; for MIC: read-out: Minimal inhibitory concentration (MIC)
Source text: as §1, §2, §3

S. aureus = test: MIC, broth tube dilution; format: cell-based; details: 12 h, 37℃; for MIC: Staphylococcus aureus, read-out: Minimal inhibitory concentration (MIC)
Source text: as §1, §2, §3

E. coli = test: MIC, broth tube dilution; format: cell-based; details: 12 h, 37℃; for MIC: Escherichia coli, read-out: Minimal inhibitory concentration (MIC)
Source text: as §1, §2, §3

Aspergillus niger = test: MIC, broth tube dilution; format: cell-based; details: 28 ℃; for MIC: 72 h, read-out: Minimal inhibitory concentration (MIC)
Source text: as §1, §2, §3

[3] = LO2 human normal liver cells, LO2 cells
[4] = HaCat human immortalised epidermal cells, HaCat cells

Molecule | IC50 at 24 h (Cytotoxicity, MTT assay; HaCat cells) [µg/mL] | IC50 at 24 h (Cytotoxicity, MTT assay; [3]) [µg/mL] | MBC (β-H-tococcus [1]) [µg/mL] | MIC (Canidia albicans) [µg/mL] | MIC (Physalospora piricola) [µg/mL] | MIC (Proteus vulgaris) [µg/mL] | MIC (P. aeruginosa) [µg/mL] | MIC (Cytospora mandshurica) [µg/mL] | MIC (β-H-tococcus [2]) [µg/mL] | MIC (α-H-tococcus) [µg/mL] | MIC (S. aureus) [µg/mL] | MIC (E. coli) [µg/mL] | MIC (Aspergillus niger) [µg/mL] | other results
C[N+](CCO)(CCO)CCCCCCSc1nnc(-c2ccc(F)cc2)o1 [Compound 5a] | > 50 | > 50 | 25 | 50 | 12.5 | 100 | 100 | 50 | 25 | 50 | 100 | 100 | 50 | –
C[N+](CCO)(CCO)CCCCCCCCCCCCSc1nnc(-c2ccccc2)o1 [Compound 2, reference compound] | – | 14.2 ± 2.15 | 6.25 | 6.25 | 3.12 | 25 | 12.5 | 3.12 | 6.25 | 6.25 | 6.25 | 25 | 3.12 | IC50 at 24 h (Cytotoxicity, MTT assay; [4]): 18.3 ± 2.21 µg/mL
C[N+](CCO)(CCO)CCCCCCCCCCSc1nnc(-c2ccc(C(F)(F)F)cc2)o1.[Br-] [Compound 6c] | – | 19.6 ± 1.62 | 6.25 | 25 | 3.12 | 25 | 50 | 12.5 | 6.25 | 12.5 | 25 | 25 | 12.5 | IC50 at 24 h (Cytotoxicity, MTT assay; [4]): 12.1 ± 1.57 µg/mL
Benzalkonium chloride [BZK, reference compound] | – | – | – | – | – | – | – | – | – | – | – | – | – | Minimal bactericidal concentration (MBC) (β-H-tococcus [1]): 1.56 µg/mL; Minimal inhibitory concentration (MIC) (Canidia albicans; 72h): 12.5 µg/mL; Minimal inhibitory concentration (MIC) (Physalospora piricola; 72h): 3.125 µg/mL; Minimal inhibitory concentration (MIC) (Proteus vulgaris): 25 µg/mL; Minimal inhibitory concentration (MIC) (P. aeruginosa): 25 µg/mL; Minimal inhibitory concentration (MIC) (Cytospora mandshurica; 72h): 6.25 µg/mL; Minimal inhibitory concentration (MIC) (β-H-tococcus [2]): 1.56 µg/mL; Minimal inhibitory concentration (MIC) (α-H-tococcus): 3.125 µg/mL; Minimal inhibitory concentration (MIC) (S. aureus): 3.125 µg/mL; Minimal inhibitory concentration (MIC) (E. coli): 25 µg/mL; Minimal inhibitory concentration (MIC) (Aspergillus niger; 72h): 3.125 µg/mL
C[N+](CCO)(CCO)CCCCCCCCCCCCSc1nc2ccccc2s1 [Compound 13d] | 6.02 ± 0.35 | 8.96 ± 0.46 | ~3.12 | ~6.25 | ~3.12 | ~25 | ~25 | ~1.56 | ~1.56 | ~12.5 | ~6.25 | ~25 | ~3.12 | –
C[N+](CCO)(CCO)CCCCCCSc1nnc(-c2ccc(C(F)(F)F)cc2)o1 [Compound 6a] | > 50 | > 50 | 25 | 50 | 6.25 | 100 | 100 | 12.5 | 25 | 50 | 50 | 50 | 25 | –
[H]/N=C(\N/C(=N/[H])NCCCCCCNC(=N)NC(=N)Nc1ccc(Cl)cc1)Nc1ccc(Cl)cc1 [CA, chlorhexidine acetate, reference compound] | – | – | 3.12 | 12.5 | 1.56 | 12.5 | 25 | 6.25 | 1.56 | 6.25 | 3.12 | 6.25 | 3.12 | –
C[N+](CCO)(CCO)CCCCCCCCCCCCSc1nnc(-c2ccc(C(F)(F)F)cc2)o1.[Br-] [Compound 6d] | – | 5.86 ± 0.61 | 3.12 | 12.5 | 1.56 | 25 | 50 | 6.25 | 3.12 | 6.25 | 6.25 | 25 | 6.25 | IC50 at 24 h (Cytotoxicity, MTT assay; [4]): 5.25 ± 0.37 µg/mL
C[N+](CCO)(CCO)CCCCCCCCCCCCSc1nnc(-c2ccc(F)cc2)o1 [Compound 5d] | 6.14 ± 0.53 | 6.95 ± 0.62 | 6.25 | 12.5 | 3.12 | ~25 | ~50 | 12.5 | ~6.25 | ~12.5 | ~12.5 | ~25 | 25 | –
C[N+](CCO)(CCO)CCCCCCCCCCSc1nnc(-c2ccc(F)cc2)o1 [Compound 5c] | 19.4 ± 1.23 | 23.9 ± 1.68 | 12.5 | 25 | 3.12 | 50 | 50 | 12.5 | 6.25 | 12.5 | 25 | 25 | 25 | –
C[N+](CCO)(CCO)CCCCCCCCSc1nnc(-c2ccc(C(F)(F)F)cc2)o1 [Compound 6b] | > 25 | > 25 | 12.5 | 25 | 3.12 | 50 | 50 | 12.5 | 12.5 | 12.5 | 25 | 25 | 12.5 | –
